We go through one compound from patent US20220298143A1, “Pyrazole Derivatives for FGFR Inhibitor and Preparation Method Thereof” (Etern Biopharma (Shanghai) Co., Ltd., priority 2019, published 2022).

pIC50: −log10 of the molar value.

The target of one data set is T1, FGFR1 (Homo sapiens, UniProt P11362).
T1 construct: purchased Cama (sic; Carna) 08-133
Kind of data set: Enzymatic activity test of FGFR inhibitor, Caliper model. It counts as biochemical. The conditions noted are these: Caliper, kinase pre-incubation 10 minutes; read-out: FGFR1.

The test system of another data set is Hep3B cells. Kind of data set: Human liver cancer cell Hep3B survival test (CellTiter-Glo). As to conditions: 72 hours compound treatment. It counts as cell-based. How it is done:
Human Liver Cancer Cell Hep3B Survival Test
The human liver cancer Hep3B cell line was from ATCC. The cells were cultured in DMEM liquid medium, and fetal bovine serum (10% FBS) and penicillin-streptomycin (100,000 U/L) were added. The cells were kept at 37° C., 95% humidity and 5% carbon dioxide in the culture medium. During the experiment, Hep3B cells were seeded in a 96-well plate at a density of 3000 cells per well. The volume of the cell suspension was 100 μL per well, and the cells were cultured overnight to attach the cells. The next day, each compound was diluted with DMSO in a three-fold gradient, and 1 μL of the solution of the compound in DMSO was added to the cell culture medium. At the same time, 1 μL of DMSO was used as a control. Three parallel sub-wells were set for each concentration of each compound. Then the cells were placed in a 37° C. incubator. After 72 hours of continuous compound treatment, 50 μL CellTiter-Glo (Promega, Madison Wis.) was added to the cell culture medium. The relative luminescence unit (RLU) of each well was determined and the cell survival rate and compound activity (IC50) were calculated.
Background: Cellular ATP, detected with luciferase, serves as a proxy for viable cell number.

In data set [1] the target is T2, FGFR1 (456-763) kinase domain protein (Homo sapiens, UniProt P11362).
T2 construct: The purified FGFR1 (456-763) kinase domain protein
Kind of data set: Confirmation of covalent bond formation between inhibitor and FGFR by mass spectrometry. The data set is classed as binding. The procedure: Confirmation of the Formation of Covalent Bonds Between FGFR Irreversible Inhibitors and FGFR by Mass Spectrometry
For example, compound 1 was incubated with FGFR1, the molecular weight of the protein-compound complex was detected by mass spectrometry.
Operation steps: The purified FGFR1 (456-763) kinase domain protein was diluted with a protein buffer (20 mM Tris-HCL pH8.0, 150 mM Nacl) to a final concentration of about 20 μM (800 ng/μl). A 100 ul incubation system was used, wherein compound 1 with a final concentration of 100 μM was added to the experimental group with a molar ratio of the protein to compound of 1:5 and DMSO was added to the control group. The amount of DMSO was controlled in the two groups to be 1% by volume of the system. The experimental group and the control group were incubated on ice at the same time for 2 hours, and then diluted with 4 times volume of acetone at −20 overnight. After centrifugation at 16000×g for 10 minutes, the deposit was resuspended in 0.1% formic acid and loaded for mass spectrometry data collection.

The next data set has as its target FGFR3 (Homo sapiens, UniProt P22607). Kind of data set: Enzymatic activity test of FGFR inhibitor, Caliper model. The data set is classed as biochemical. As to conditions: kinase pre-incubation 10 minutes.
The target in another data set is FGFR2 (Homo sapiens, UniProt P21802). The description is as above. It counts as biochemical. The conditions noted are these: kinase pre-incubation 10 minutes.
The target of a further data set is T3, FGFR4 (Homo sapiens, UniProt P22455).
T3 construct: purchased Invitrogen PR4380A
Described as above. The data set is classed as biochemical. As to conditions: Caliper, kinase pre-incubation 10 minutes; read-out: FGFR4.

Data set [2] can be described thus: Compound pharmacokinetic experiment, single intragastric administration. It counts as in vivo. The conditions noted are these: mouse, plasma, male mice, oral dosage 15 mg/Kg. The procedure: Compound Pharmacokinetic Experiment
The pharmacokinetics of the compounds of the present disclosure was determined. This application used the following methods to determine the pharmacokinetic parameters of the compounds.
For the healthy male adult mice used in the study, each group of animals was given a single intragastric administration of 5-100 mg/Kg. Fasting was from 10 hours before administration to 4 hours after administration. Blood was collected at different time points after administration, and the plasma content of the compound was determined (LC-MS/MS). The plasma concentration-time relationship was analyzed with professional software (winnonlin) to calculate the pharmacokinetic parameters of the compound.

Data set [3] concerns Human liver cancer Hep3B cells. Briefly: Hep3B transplanted tumor model. It counts as in vivo, Balb/c nude mice. The conditions noted are these: 21 days. The procedure:
Hep3B Transplanted Tumor Model
Cell culture: Human liver cancer Hep3B cells were cultured in a monolayer in vitro. The culture conditions were 1640 medium with 10% fetal bovine serum, 100 U/mL penicillin and 100 μg/mL streptomycin, incubated at 37° C. in 5% CO2 incubator. Routine digestive passage was performed by pancreatin-EDTA twice a week. When the cell saturation was 80%-90% and the number reached the requirement, the cells were collected, counted, and inoculated.
Animals: Balb/c nude mice, female, 6-8 weeks old, weighing 18-22 grams, provided by Shanghai Slack Laboratory Animal Co., Ltd. or other qualified suppliers.
Tumor inoculation: 0.2 mL (10×106+Matrixgel) Hep3B cells were subcutaneously inoculated on the right back of each mouse, and group administration was started when the average tumor volume reached about 140-200 mm^3.
Administration: compound prescription (0.5% MC+0.5% Tween 80) was made with administration dose of 0.3 mg/Kg, 1 mg/Kg, 2 mg/Kg, 3 mg/Kg, intragastric administration twice a day continuously for 21 days.
Experimental indicators: to investigate whether tumor growth was inhibited, delayed or cured, the tumor diameter was measured with a vernier caliper three times a week. The calculation formula for tumor volume is: V=0.5a×b2, where a and b represent the long diameter and short diameter of the tumor, respectively. The anti-tumor efficacy of the compound was evaluated by TGI (%). TGI (%) reflected the tumor growth inhibition rate.

The mark [4] stands for this setting: 100 μM compound, about 20 μM protein, 2 hours on ice.

T2 sequence (P11362 456-763): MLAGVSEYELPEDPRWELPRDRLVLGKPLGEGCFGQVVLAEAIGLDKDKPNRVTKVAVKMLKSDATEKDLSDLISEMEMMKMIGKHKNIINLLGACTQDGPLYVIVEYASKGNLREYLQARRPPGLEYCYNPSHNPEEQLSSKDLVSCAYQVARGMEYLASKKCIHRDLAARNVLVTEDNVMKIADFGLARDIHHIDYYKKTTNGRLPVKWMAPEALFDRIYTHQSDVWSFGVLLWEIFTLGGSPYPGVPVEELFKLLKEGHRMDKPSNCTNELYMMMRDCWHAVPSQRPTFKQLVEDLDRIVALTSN
T1 sequence (P11362 22-822): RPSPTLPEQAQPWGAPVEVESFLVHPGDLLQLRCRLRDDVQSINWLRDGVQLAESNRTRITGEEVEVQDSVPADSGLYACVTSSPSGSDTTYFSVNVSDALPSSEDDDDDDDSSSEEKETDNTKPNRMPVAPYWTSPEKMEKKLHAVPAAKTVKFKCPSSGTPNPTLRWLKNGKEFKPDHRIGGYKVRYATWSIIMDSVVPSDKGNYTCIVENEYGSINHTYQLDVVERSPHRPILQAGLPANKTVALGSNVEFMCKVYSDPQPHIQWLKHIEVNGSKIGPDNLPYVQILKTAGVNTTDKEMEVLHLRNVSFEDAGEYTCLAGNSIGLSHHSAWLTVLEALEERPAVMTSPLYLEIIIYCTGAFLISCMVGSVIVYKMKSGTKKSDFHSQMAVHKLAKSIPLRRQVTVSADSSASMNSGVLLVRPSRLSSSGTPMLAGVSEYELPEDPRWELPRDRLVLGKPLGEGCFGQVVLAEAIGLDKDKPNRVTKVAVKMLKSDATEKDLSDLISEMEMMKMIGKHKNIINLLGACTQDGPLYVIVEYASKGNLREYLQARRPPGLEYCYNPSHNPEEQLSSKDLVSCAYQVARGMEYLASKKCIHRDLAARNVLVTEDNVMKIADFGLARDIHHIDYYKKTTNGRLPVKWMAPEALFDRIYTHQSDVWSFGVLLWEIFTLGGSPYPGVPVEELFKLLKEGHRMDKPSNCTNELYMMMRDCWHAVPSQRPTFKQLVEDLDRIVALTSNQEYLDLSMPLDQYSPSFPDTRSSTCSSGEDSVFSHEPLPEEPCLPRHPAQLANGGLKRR
T3 sequence (P22455 22-802): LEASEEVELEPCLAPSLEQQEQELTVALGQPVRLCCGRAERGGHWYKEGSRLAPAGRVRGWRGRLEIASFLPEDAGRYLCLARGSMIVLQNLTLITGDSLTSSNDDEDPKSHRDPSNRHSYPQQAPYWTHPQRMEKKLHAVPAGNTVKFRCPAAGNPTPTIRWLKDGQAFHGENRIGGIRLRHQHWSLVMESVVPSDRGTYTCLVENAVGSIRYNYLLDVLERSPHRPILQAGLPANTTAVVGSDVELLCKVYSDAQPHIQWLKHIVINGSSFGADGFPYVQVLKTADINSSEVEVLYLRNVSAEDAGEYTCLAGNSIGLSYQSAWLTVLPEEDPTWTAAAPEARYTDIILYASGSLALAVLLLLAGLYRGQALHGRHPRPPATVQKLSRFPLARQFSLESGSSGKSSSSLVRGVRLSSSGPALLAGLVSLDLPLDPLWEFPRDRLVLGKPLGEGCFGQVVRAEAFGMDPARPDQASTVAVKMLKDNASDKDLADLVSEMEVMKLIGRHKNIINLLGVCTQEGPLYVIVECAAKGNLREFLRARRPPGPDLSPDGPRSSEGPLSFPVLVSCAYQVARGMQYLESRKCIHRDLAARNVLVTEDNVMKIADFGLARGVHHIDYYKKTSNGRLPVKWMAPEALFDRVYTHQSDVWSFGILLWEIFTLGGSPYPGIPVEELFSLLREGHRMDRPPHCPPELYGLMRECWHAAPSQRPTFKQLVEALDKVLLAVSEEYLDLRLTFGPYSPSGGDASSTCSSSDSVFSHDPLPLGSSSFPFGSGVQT
Sequence of FGFR2 (P21802 22-821): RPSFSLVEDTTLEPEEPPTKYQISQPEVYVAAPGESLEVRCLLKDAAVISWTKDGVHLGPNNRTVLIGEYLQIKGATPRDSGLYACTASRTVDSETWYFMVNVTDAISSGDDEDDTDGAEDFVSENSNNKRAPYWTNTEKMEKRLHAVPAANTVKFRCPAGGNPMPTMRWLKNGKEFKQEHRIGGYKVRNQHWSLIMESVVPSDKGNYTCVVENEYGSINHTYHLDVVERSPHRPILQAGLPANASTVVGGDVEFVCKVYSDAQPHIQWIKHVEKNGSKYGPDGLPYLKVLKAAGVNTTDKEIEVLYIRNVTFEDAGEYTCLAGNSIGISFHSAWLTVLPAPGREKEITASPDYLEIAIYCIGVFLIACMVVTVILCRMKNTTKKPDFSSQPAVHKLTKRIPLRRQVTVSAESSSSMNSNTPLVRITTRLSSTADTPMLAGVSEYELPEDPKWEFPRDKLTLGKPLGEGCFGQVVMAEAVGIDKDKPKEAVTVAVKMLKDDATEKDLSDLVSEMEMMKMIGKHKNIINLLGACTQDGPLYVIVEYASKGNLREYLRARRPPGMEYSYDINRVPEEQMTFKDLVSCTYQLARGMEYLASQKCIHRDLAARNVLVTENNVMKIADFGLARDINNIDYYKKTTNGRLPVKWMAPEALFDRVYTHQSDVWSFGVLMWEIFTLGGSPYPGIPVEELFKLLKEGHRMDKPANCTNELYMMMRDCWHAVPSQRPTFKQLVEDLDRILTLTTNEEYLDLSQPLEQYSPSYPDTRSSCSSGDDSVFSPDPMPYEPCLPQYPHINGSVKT
Sequence of FGFR3 (P22607 23-806): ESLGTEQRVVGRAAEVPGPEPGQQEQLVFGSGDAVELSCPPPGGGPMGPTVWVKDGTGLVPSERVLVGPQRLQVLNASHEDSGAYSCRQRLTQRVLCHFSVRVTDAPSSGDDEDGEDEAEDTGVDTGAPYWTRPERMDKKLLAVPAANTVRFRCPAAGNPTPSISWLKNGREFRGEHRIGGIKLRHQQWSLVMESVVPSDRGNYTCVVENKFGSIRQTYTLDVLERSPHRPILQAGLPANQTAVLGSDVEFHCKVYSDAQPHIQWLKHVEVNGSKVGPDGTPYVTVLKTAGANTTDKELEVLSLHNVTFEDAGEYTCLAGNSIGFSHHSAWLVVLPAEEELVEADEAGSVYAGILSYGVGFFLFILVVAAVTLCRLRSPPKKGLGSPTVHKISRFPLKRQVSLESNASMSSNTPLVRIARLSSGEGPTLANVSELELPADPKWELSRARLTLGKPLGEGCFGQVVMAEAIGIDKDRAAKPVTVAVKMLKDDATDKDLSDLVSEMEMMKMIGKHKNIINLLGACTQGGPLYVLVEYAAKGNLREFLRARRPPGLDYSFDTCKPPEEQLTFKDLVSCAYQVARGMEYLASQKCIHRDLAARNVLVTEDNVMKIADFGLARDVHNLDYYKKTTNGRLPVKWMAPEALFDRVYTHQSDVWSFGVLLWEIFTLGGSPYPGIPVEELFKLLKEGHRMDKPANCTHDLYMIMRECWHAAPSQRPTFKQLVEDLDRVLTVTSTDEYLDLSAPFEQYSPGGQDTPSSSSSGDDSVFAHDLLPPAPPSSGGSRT
Procedure for FGFR2: (§1) Enzymatic Activity Test of FGFR Inhibitor-Caliper Model
(§2) The specific operation steps were as follows:
(§3) The compound was first serially diluted in 5% DMSO solution, and 5 μL of the compound solution was added to a 384-well plate. The maximum final concentration of the compound is 1 μM, being diluted three times with 10 concentrations.
(§4) 10 μL of kinase solution was added to the 384-well plate and incubated at room temperature for 10 minutes;
(§5) 10 μL of P22 peptide and ATP solution were added to the 384-well plate, and 25 μL of reaction stop buffer was added after a specific time at 28° C.;
(§6) The data was collected in Caliper read and the inhibition rate was calculated according to inhibition rate=(max−conversion)/(max−min)*100, where max is DMSO control, conversion is the reading of the compound treated group, and min is the maximum inhibition control. IC50 value of the compound was calculated with XLfit excel add-in version 5.4.0.8 software.
Procedure for FGFR4: as §1, §2, §3, §4, §5, §6

In general, AUC refers to the area under the concentration-time curve, a measure of exposure. In the case of `C=CC(=O)Nc1cc(N2CCN(CCC(F)(F)F)CC2)ccc1C(=O)Nc1cc(CCc2cc(OC)cc(OC)c2)n[nH]1` [Compound 1, 2-acrylamide-N-(3-(3,5-dimethoxyphenethyl)-1H-pyrazol-5-yl)-4-(4-(3,3,3-trifluoropropyl)piperazin-1-yl) benzamide], the pIC50 on FGFR1 is 8.72; in the data set on Hep3B cells, 8.85; against FGFR3, 8.48; on FGFR2 it was 8.74; at FGFR4, 8.92. Moreover, the “average molecular weight of protein-compound complex” value in data set [1] (setting [4]) is 36345.5 Da. For the same compound, in data set [1] (setting [4]), the “Δmolecular weight (complex versus DMSO + FGFR1)” value is given as 598. Moreover, in data set [1] (mass spectrometry), the “formation of covalent bond with FGFR1 protein” value is recorded as “formed an irreversible covalent bond”. Moreover, in data set [2] (read-out: Peak plasma concentration Cmax), the Cmax worked out at 1220 nM. For the same compound, the AUC in data set [2] (read-out: Plasma exposure AUC) stood at 2.27 µM·h. The TGI % in data set [3] (0.3 mpk oral twice a day) came to 17%; in data set [3] (1 mpk oral twice a day) it was 50%; in data set [3] (2 mpk oral twice a day), 100%; in data set [3] (3 mpk oral twice a day) it was 108%.
